Structures can show the parent of a compound that is named as a salt.
Biological target: Cytoplasmic dynein 1 heavy chain 1 (Rattus norvegicus, UniProt P38650)
Assay: Inhibition of MT-stimulated ATPase activity of rat cytoplasmic dynein heavy chain motor domain

Chain of Cytoplasmic dynein 1 heavy chain 1 (P38650 whole entry, the tested form may be a part): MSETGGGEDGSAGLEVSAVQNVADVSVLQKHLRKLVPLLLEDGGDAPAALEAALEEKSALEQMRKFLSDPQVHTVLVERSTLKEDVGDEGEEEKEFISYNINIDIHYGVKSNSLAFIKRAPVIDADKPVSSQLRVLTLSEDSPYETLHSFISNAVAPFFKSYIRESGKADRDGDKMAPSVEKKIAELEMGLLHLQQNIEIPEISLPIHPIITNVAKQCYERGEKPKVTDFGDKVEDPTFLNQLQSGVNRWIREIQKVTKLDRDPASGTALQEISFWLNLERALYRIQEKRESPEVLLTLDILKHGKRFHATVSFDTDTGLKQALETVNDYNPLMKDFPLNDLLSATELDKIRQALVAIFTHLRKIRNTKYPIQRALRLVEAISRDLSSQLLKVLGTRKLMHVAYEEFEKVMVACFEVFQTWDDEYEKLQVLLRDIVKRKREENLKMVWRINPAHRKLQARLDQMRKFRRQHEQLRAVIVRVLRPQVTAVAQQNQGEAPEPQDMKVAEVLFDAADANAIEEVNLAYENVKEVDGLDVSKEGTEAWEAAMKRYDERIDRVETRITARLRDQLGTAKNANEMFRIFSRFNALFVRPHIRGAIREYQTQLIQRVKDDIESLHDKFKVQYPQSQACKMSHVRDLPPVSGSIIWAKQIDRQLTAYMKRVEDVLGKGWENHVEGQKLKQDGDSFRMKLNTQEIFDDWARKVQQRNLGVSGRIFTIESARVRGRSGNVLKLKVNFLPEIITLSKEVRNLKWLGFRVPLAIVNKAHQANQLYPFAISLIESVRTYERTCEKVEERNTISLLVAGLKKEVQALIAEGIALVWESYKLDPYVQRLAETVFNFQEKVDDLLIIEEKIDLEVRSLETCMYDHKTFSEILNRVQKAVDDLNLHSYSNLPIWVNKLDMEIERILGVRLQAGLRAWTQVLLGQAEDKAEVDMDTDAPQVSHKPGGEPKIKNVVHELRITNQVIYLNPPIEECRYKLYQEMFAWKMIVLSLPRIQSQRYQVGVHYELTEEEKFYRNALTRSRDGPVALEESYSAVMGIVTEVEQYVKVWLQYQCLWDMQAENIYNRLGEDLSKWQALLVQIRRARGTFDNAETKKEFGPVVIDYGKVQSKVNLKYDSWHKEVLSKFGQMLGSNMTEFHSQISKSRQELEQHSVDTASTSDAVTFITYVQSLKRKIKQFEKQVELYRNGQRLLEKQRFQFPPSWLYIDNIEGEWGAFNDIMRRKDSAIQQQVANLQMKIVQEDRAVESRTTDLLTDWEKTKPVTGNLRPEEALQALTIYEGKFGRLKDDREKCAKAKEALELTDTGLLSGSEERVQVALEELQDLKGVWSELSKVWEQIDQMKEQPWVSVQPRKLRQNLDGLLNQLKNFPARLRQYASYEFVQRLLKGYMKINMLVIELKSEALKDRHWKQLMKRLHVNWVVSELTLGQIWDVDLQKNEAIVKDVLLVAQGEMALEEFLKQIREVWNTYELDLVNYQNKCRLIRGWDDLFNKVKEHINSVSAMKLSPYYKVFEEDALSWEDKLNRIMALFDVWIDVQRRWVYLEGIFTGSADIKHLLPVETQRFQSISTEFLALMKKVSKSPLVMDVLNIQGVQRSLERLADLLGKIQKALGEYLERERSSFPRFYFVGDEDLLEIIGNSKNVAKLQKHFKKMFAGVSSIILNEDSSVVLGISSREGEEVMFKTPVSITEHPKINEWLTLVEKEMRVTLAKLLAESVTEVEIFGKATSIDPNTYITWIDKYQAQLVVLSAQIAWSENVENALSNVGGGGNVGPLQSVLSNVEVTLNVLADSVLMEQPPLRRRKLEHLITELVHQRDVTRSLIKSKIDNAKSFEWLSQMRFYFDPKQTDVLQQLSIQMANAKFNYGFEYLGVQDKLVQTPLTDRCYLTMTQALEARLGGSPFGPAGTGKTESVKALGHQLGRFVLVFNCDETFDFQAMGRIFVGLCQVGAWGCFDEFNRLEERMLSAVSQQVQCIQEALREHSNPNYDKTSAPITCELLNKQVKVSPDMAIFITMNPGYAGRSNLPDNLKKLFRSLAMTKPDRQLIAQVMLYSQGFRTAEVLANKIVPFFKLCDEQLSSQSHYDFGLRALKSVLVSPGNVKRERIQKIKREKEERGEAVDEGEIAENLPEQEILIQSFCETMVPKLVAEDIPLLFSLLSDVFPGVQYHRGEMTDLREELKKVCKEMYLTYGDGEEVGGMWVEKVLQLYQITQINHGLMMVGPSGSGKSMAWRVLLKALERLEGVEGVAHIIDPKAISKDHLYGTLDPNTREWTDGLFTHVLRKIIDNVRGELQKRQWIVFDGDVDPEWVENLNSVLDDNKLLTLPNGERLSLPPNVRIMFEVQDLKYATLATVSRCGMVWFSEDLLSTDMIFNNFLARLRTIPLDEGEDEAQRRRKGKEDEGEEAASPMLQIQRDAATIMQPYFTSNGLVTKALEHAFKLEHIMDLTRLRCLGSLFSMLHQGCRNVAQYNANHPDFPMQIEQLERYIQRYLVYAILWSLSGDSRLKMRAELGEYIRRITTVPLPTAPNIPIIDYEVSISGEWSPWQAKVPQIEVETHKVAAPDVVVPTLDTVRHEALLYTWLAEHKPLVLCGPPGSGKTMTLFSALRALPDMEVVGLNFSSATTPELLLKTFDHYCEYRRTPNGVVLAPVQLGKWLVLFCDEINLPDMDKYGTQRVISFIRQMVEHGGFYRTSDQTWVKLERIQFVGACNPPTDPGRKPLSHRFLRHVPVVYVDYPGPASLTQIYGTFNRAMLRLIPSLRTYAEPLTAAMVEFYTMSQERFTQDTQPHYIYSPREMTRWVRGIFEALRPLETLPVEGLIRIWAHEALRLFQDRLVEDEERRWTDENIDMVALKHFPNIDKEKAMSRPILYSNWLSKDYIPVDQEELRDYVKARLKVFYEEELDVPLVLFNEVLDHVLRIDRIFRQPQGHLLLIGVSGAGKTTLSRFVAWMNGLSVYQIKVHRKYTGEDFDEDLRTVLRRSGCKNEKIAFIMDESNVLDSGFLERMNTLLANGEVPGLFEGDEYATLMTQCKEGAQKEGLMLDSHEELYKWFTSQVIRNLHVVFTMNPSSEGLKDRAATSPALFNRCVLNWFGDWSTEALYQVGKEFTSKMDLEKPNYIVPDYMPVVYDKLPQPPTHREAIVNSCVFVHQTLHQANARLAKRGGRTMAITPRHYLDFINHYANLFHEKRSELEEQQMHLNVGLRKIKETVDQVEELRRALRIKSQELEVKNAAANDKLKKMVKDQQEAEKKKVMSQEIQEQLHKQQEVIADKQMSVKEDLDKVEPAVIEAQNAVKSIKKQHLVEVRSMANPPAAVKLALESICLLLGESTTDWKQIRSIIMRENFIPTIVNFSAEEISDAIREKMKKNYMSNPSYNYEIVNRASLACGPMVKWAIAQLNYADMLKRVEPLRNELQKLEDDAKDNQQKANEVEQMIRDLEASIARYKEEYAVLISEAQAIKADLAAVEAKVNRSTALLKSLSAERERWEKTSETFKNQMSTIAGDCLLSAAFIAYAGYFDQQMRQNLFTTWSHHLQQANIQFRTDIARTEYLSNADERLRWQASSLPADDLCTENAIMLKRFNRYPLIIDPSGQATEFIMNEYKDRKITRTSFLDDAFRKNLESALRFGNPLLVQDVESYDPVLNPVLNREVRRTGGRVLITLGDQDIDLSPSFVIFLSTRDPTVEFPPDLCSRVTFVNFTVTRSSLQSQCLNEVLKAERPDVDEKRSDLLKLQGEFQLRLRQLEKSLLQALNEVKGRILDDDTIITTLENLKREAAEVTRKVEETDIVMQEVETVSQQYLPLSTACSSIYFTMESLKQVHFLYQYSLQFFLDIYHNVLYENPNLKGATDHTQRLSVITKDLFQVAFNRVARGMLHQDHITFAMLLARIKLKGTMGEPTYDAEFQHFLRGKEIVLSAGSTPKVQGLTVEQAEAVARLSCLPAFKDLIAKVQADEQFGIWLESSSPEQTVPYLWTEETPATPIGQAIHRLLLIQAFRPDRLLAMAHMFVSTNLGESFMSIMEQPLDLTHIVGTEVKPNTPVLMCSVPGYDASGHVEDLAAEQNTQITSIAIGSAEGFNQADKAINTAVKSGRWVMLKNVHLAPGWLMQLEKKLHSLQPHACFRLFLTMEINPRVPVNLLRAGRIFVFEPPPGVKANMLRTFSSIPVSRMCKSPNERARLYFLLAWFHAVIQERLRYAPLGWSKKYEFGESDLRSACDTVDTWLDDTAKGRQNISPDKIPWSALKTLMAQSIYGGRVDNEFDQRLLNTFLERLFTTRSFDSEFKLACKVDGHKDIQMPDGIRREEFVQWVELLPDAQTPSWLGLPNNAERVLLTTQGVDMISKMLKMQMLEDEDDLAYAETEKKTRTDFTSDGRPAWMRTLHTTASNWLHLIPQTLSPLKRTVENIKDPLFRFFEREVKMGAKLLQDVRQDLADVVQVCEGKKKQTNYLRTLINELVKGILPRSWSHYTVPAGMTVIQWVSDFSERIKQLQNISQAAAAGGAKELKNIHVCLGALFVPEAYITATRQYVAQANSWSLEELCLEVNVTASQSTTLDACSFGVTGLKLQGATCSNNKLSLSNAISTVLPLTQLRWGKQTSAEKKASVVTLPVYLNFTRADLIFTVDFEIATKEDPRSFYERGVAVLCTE

IC50 [µM] | SMILES
> 50 | NCCCOc1c(Br)cc(Br)cc1CC(N=O)C(=O)NCCc1c[nH]c2ccccc12 (stereo unspecified) [3-[2-(3-aminopropoxy)-3,5-dibromophenyl]-2-hydroxyimino-N-[2-(1H-indol-3-yl)ethyl]propanamide hydrochloride]
> 50 | NCCCOc1ccc(CC(N=O)C(=O)NCCc2c[nH]c3ccccc23)cc1Br (stereo unspecified) [3-[4-(3-aminopropoxy)-3-bromophenyl]-2-hydroxyimino-N-[2-(1H-indol-3-yl)ethyl]propanamide hydrochloride]

More lines, now with the values behind:

SMILES | IC50 [µM]
NCCCOc1c(Br)cc(Br)cc1CC(N=O)C(=O)NCCc1ccc(Cl)cc1 (stereo unspecified) [3-[2-(3-aminopropoxy)-3,5-dibromophenyl]-N-[2-(4-chlorophenyl)ethyl]-2-hydroxyiminopropanamide hydrochloride] | > 50
CCCCCCCCCCCCCC(=O)NCCCOc1c(Br)cc(CC(N=O)C(=O)NCCc2cnc(N)[nH]2)cc1Br (stereo unspecified) [Lipopurealin A] | > 50
NCCCOc1ccc(CC(N=O)C(=O)NCCc2ccc(Cl)cc2)cc1Br (stereo unspecified) [3-[4-(3-aminopropoxy)-3-bromophenyl]-N-[2-(4-chlorophenyl)ethyl]-2-hydroxyiminopropanamide hydrochloride] | > 50
NCCCOc1c(Cl)cc(Cl)cc1CC(N=O)C(=O)NCCc1c[nH]c2ccccc12 (stereo unspecified) [3-[2-(3-aminopropoxy)-3,5-dichlorophenyl]-2-hydroxyimino-N-[2-(1H-indol-3-yl)ethyl]propanamide hydrochloride] | > 50

— BindingDB's records for doi:10.1021/jm051030l (University of Pittsburgh, 2006)
